Reference: US10413532B2, “Pharmaceutical compositions containing a PDE4 inhibitor and a PI3 delta or dual PI3 delta-gamma kinase inhibitor” (Rhizen Pharmaceuticals SA, priority 2012, dated 2019)

System: macrophage and neutrophil infiltration
Test: Acute cigarette smoke induced cell infiltration in male Balb/c mice
Assay type: in vivo
Conditions: acute CS, mouse
Method: Animals were acclimatized for seven days prior to the start of the experiment. Animals were randomly distributed to various groups based on their body weights. On day 1, mice were administered by test compound or vehicle by the oral route and after 30 mins test compound administration animals were placed in a whole body exposure box. The mice were exposed to the mainstream smoke of 6 cigarettes from day 1 to day 4. Exposure to the smoke of each cigarette lasted for 10 min (cigarettes were completely burned in the first two minutes and followed by an air flow with animal ventilator) followed by exposure for the next 20 min with fresh room air. After every second cigarette an additional break of 20 min with exposure to fresh room air was conducted. Control animals were exposed to the room air chamber. From day 1 to day 4 animals were administered test compound by the oral route. On day 5, 24 hours after the last cigarette smoke (CS) exposure. animals were exsanguinated under anaesthesia, and the trachea was cannulated and the lungs were lavaged with 0.5 ml aliquots of heparinised PBS (1 unit/ml) four times through a tracheal cannula (total volume 2 ml). Bronchioalveolar (BAL) collected was stored at 2-8° C. until assayed for total cell and differential leukocyte count. BAL fluid was centrifuged (500×g for 10 min) and the resulting cell pellet was resuspended in 0.5 ml of heparinised saline. The total number of white blood cells was determined in BAL fluid and blood using a blood cell counter and adjusted to 1×10^6 cell/ml. Differential cell count was calculated manually. Forty microliters of the cell suspension was centrifuged using cytospin 3 to prepare a cell smear. The cell smear was stained with a blood staining solution for differentiation and microscopically observed by identifying each cell according to its morphological characteristics. The number of each cell type among 300 white blood cells in the cell smear were determined and expressed as a percentage, and the number of neutrophils and macrophages in each BAL fluid were calculated.
The procedure for acute cigarette smoke induced cell infiltration in male Balb/c mice described in Example 1 was performed with Compound A1 and roflumilast

[1] = 3 mg/kg oral, dose-response study
[2] = combination study, alone at 3.5 mg/kg

## O=C(Nc1c(Cl)cncc1Cl)c1ccc(OC(F)F)c(OCC2CC2)c1 [Compound A, roflumilast, reference compound]
1 mg/kg oral
  percent inhibition of macrophage infiltration: 22.2%
  percent inhibition of neutrophil infiltration: 70.85%
[1]
  percent inhibition of macrophage infiltration: 51.00%
  percent inhibition of neutrophil infiltration: 73.69%
10 mg/kg oral
  percent inhibition of macrophage infiltration: 69.11%
  percent inhibition of neutrophil infiltration: 83.01%
Macrophage, oral, read-out: 50% inhibition (ED50) dose, macrophage infiltration
  ED50: 3.5 mg/kg
[2]
  inhibition of macrophage infiltration: 26.55%
  inhibition of neutrophil infiltration: 44.42%
